According to ChEMBL document CHEMBL1201862, “PubChem BioAssay data set” (2004):
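96-well plates; 48 h exposure; 5 concentrations. Endpoints by linear interpolation between flanking doses. Not reached: highest tested concentration assigned. GI50: concentration for 50% inhibition of growth.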 Active and inactive are the calls of the source. Cut-off read from the data, not from the text of the source: active = GI50 up to about 1.1 µM and inactive = higher.

Key:
Assay in all cases: DTP human tumour cell line panel, 48 h
[1] = tested on: 786-0
[2] = tested on: A498
[3] = tested on: A549
[4] = tested on: CAKI-1
[5] = tested on: DU-145
[6] = tested on: HCT-116
[7] = tested on: HOP-92
[8] = tested on: K562
[9] = tested on: MDA-N
[10] = tested on: MOLT-4
[11] = tested on: NCI-H522
[12] = tested on: NCI/ADR-RES
[13] = tested on: PC-3
[14] = tested on: SF-539
[15] = tested on: SK-MEL-5
[16] = tested on: SN12C
[17] = tested on: T47D
[18] = tested on: U-251
[19] = tested on: UACC-257
[20] = tested on: UO-31

| Structure (SMILES) | GI50 [1] | GI50 [2] | GI50 [3] | GI50 [4] | GI50 [5] | GI50 [6] | GI50 [7] | GI50 [8] | GI50 [9] | GI50 [10] | GI50 [11] | GI50 [12] | GI50 [13] | GI50 [14] | GI50 [15] | GI50 [16] | GI50 [17] | GI50 [18] | GI50 [19] | GI50 [20] |
| --- | --- | --- | --- | --- | --- | --- | --- | --- | --- | --- | --- | --- | --- | --- | --- | --- | --- | --- | --- | --- |
| O=C(O)CCCSc1nc2ccccc2s1 | > 100 µM (inactive) | > 100 µM (inactive) | > 100 µM (inactive) | > 100 µM (inactive) | > 100 µM (inactive) | > 100 µM (inactive) | > 100 µM (inactive) | > 100 µM (inactive) | > 100 µM (inactive) | > 100 µM (inactive) | > 100 µM (inactive) | > 100 µM (inactive) | > 100 µM (inactive) | > 100 µM (inactive) | > 100 µM (inactive) | > 100 µM (inactive) | > 100 µM (inactive) | > 100 µM (inactive) | > 100 µM (inactive) | > 100 µM (inactive) |
| O=C1CC(Br)c2c(Cl)sc(Cl)c21 (stereo not given) | 3.04 µM (inactive) | 20.3 µM (inactive) | 18.3 µM (inactive) | 3.1 µM (inactive) | 17 µM (inactive) | 4.56 µM (inactive) | 15.1 µM (inactive) | 2.17 µM (inactive) | 3.21 µM (inactive) | 1.94 µM (inactive) | 17 µM (inactive) | 24 µM (inactive) | 10.8 µM (inactive) | 8.3 µM (inactive) | 17.6 µM (inactive) | 14.1 µM (inactive) | 4.18 µM (inactive) | 3.37 µM (inactive) | 4 µM (inactive) | 4.06 µM (inactive) |
| CCCCCC(/C=C/C1CCC(=O)C1)OCOCCOC (stereo not given) | 19.3 µM (inactive) | 48.2 µM (inactive) | 59.7 µM (inactive) | 31.5 µM (inactive) | > 100 µM (inactive) | 27 µM (inactive) | 24.2 µM (inactive) | 25.8 µM (inactive) | 40.2 µM (inactive) | 15.8 µM (inactive) | 17.1 µM (inactive) | 30 µM (inactive) | 42.1 µM (inactive) | 19.8 µM (inactive) | 47.8 µM (inactive) | 57.5 µM (inactive) | 52.1 µM (inactive) | 38.1 µM (inactive) | 26.9 µM (inactive) | 17.9 µM (inactive) |
| CC1(C)O[C@@H]2COC(=O)[C@@H]2O1 | > 100 µM (inactive) | > 100 µM (inactive) | > 100 µM (inactive) | > 100 µM (inactive) | > 100 µM (inactive) | > 100 µM (inactive) | > 100 µM (inactive) | > 100 µM (inactive) | > 100 µM (inactive) | > 100 µM (inactive) | > 100 µM (inactive) | > 100 µM (inactive) | > 100 µM (inactive) | 2.95 µM (inactive) | > 100 µM (inactive) | > 100 µM (inactive) | > 100 µM (inactive) | > 100 µM (inactive) | > 100 µM (inactive) | > 100 µM (inactive) |
| COc1ccc(-c2oc3cc(OC)c(OC)c(OC)c3c(=O)c2OC)cc1OC [HEXAMETHOXYFLAVONE] | > 100 µM (inactive) | > 100 µM (inactive) | > 100 µM (inactive) | > 100 µM (inactive) | > 100 µM (inactive) | > 100 µM (inactive) | 16.4 µM (inactive) | > 100 µM (inactive) | > 100 µM (inactive) | > 100 µM (inactive) | > 100 µM (inactive) | > 100 µM (inactive) | > 100 µM (inactive) | > 100 µM (inactive) | 53.8 µM (inactive) | > 100 µM (inactive) | 79.6 µM (inactive) | > 100 µM (inactive) | > 100 µM (inactive) | 79.1 µM (inactive) |
| CN(C)[C@H]1CC[C@H]2[C@@H]3CCC4C[C@@H](NC(=O)NC(Cc5ccccc5)c5nccs5)CC[C@]4(C)[C@H]3CC[C@]12C (stereo not given in full) | 0.512 µM (active) | 1.69 µM (inactive) | 1.58 µM (inactive) | 1.7 µM (inactive) | 2.28 µM (inactive) | 0.955 µM (active) | 1.53 µM (inactive) | 0.128 µM (active) | 0.35 µM (active) | 0.566 µM (active) | 2 µM (inactive) | 1.77 µM (inactive) | 0.509 µM (active) | 1.75 µM (inactive) | 0.789 µM (active) | 0.348 µM (active) | 1.76 µM (inactive) | 0.698 µM (active) | 1.87 µM (inactive) | 1.69 µM (inactive) |
| ON[C@@H]1C=C[C@H](n2cnc3c(NC4CC4)ncnc32)C1 | > 100 µM (inactive) | > 100 µM (inactive) | > 100 µM (inactive) | > 100 µM (inactive) | > 100 µM (inactive) | 86.5 µM (inactive) | > 100 µM (inactive) | > 100 µM (inactive) | > 100 µM (inactive) | > 100 µM (inactive) | > 100 µM (inactive) | > 100 µM (inactive) | > 100 µM (inactive) | > 100 µM (inactive) | > 100 µM (inactive) | > 100 µM (inactive) | > 100 µM (inactive) | > 100 µM (inactive) | > 100 µM (inactive) | > 100 µM (inactive) |
